Data published in article PMC11879280, “Antimicrobial activity of peptoids against Metallo-β-lactamase-producing Klebsiella pneumoniae, Acinetobacter baumannii, Pseudomonas aeruginosa, and other WHO priority pathogens, including Candida auris” (Journal of Applied Microbiology, 2025).
Where two headings read alike, the source gives them in different places. Square brackets hold non-standard residues; d marks the D form. Ends that are not written are not given here. Peptide text beside a SMILES is read from it. Nspe(4-Br) = C[C@H](NCC(=O)O)c1ccc(Br)cc1; Nlys = NCCCCNCC(=O)O

Experiments:
K. pneumoniae JIE4212 = system: K. pneumoniae JIE4212
Summary of the method: (§1)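 Incubation 37°C, 120 rpm, 16–20 h, starting from 5 × 10^5 CFU/ml in MHB (peptidomimetics) or cation-adjusted MHB (antibiotics). Bactericidal/fungicidal endpoints came from log10-diluted wells plated on Trypticase Soya Agar containing phosphatidylcholine and Tween 80; MICs also summarised as geometric means.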

En. cloacae 003 = system: En. cloacae 003
Summary of the method: as §1

A. baumannii 005 = system: A. baumannii 005
Summary of the method: as §1

A. baumannii 008 = system: A. baumannii 008
Summary of the method: as §1

P. aeruginosa 216 = system: P. aeruginosa 216
Summary of the method: as §1

E. coli 0010 = system: E. coli 0010
Summary of the method: as §1

En. cloacae 005 = system: En. cloacae 005
Summary of the method: as §1

E. coli 0011 = system: E. coli 0011
Summary of the method: as §1

En. cloacae 001 = system: En. cloacae 001
Summary of the method: as §1

A. baumannii 006 = system: A. baumannii 006
Summary of the method: as §1

E. coli 0015 = system: E. coli 0015
Summary of the method: as §1

[1] = system: Enteroc. faecalis NCTC 13 379
Summary of the method: as §1

E. coli 005 = system: E. coli 005
Summary of the method: as §1

P. aeruginosa 33 = system: P. aeruginosa 33
Summary of the method: as §1

S. aureus 105 = system: S. aureus 105
Summary of the method: as §1

A. baumannii 007 = system: A. baumannii 007
Summary of the method: as §1

S. aureus 04 = system: S. aureus 04
Summary of the method: as §1

[2] = system: horse red blood cells (RBCs); assay: Haemolysis assay; assay type: cell-based
Summary of the method: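 Washed horse RBCs exposed to peptoids at 0.5–250 μg ml^−1 in PBS for 4 h at 37 °C; supernatant OD 540 nm read after centrifugation. Percent haemolysis normalized between PBS (0%) and water (100%) controls, in triplicate.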

C. auris strains = settings: two C. auris strains
Summary of the method: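 Inoculum 5 × 10^5 CFU ml^−1 in CAMHB for antibiotics or MHB for peptidomimetics; incubated 37°C, 120 rpm, 16–20 h. Suspensions plated on Trypticase Soya Agar with phosphatidylcholine and Tween 80 for MBC/MFC. Geometric mean MIC computed across pathogens; therapeutic index calculated by formula.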

MBL-producing bacteria = assay: Geometric mean MIC, therapeutic index and selectivity ratio, MBL-producing bacteria; assay type: cell-based
Summary of the method: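 Values are geometric means of MICs over the pathogen panel. MICs were read after 16–20 h shaking at 37°C and 120 rpm, with 5 × 10^5 CFU ml^−1 in MHB (peptidomimetics) or CAMHB (antibiotics), and bactericidal endpoints from subculture. Strips ran 20 h at 37°C on Mueller–Hinton agar lawns (1.5 × 10^8 CFU ml^−1).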

[3] = K. pneumoniae JIE4212, MHB (melimine/Mel4 with 0.2% BSA, 0.01% acetic acid), mean MIC
[4] = En. cloacae 003, MHB (melimine/Mel4 with 0.2% BSA, 0.01% acetic acid), mean MIC
[5] = A. baumannii 005, MHB (melimine/Mel4 with 0.2% BSA, 0.01% acetic acid), mean MIC
[6] = A. baumannii 008, MHB (melimine/Mel4 with 0.2% BSA, 0.01% acetic acid), mean MIC
[7] = P. aeruginosa 216, MHB (melimine/Mel4 with 0.2% BSA, 0.01% acetic acid), mean MIC
[8] = E. coli 0010, MHB (melimine/Mel4 with 0.2% BSA, 0.01% acetic acid), mean MIC
[9] = En. cloacae 005, MHB (melimine/Mel4 with 0.2% BSA, 0.01% acetic acid), mean MIC
[10] = E. coli 0011, MHB (melimine/Mel4 with 0.2% BSA, 0.01% acetic acid), mean MIC
[11] = En. cloacae 001, MHB (melimine/Mel4 with 0.2% BSA, 0.01% acetic acid), mean MIC
[12] = A. baumannii 006, MHB (melimine/Mel4 with 0.2% BSA, 0.01% acetic acid), mean MIC
[13] = E. coli 0015, MHB (melimine/Mel4 with 0.2% BSA, 0.01% acetic acid), mean MIC
[14] = Enteroc. faecalis NCTC 13 379, MHB (melimine/Mel4 with 0.2% BSA, 0.01% acetic acid), mean MIC
[15] = E. coli 005, MHB (melimine/Mel4 with 0.2% BSA, 0.01% acetic acid), mean MIC
[16] = P. aeruginosa 33, MHB (melimine/Mel4 with 0.2% BSA, 0.01% acetic acid), mean MIC
[17] = S. aureus 105, MHB (melimine/Mel4 with 0.2% BSA, 0.01% acetic acid), mean MIC
[18] = A. baumannii 007, MHB (melimine/Mel4 with 0.2% BSA, 0.01% acetic acid), mean MIC
[19] = S. aureus 004, MHB (melimine/Mel4 with 0.2% BSA, 0.01% acetic acid), mean MIC
[20] = horse RBCs in PBS, 37°C, 4 h, OD 540 nm, triplicate, best fit curve
[21] = horse RBCs in PBS, 37°C, 4 h, value in brackets

Compound: C[C@@H](c1ccc(Br)cc1)N(CC(=O)N(CCCCN)CC(=O)N(CC(=O)N(CC(=O)N(CCCCN)CC(N)=O)[C@@H](C)c1ccc(Br)cc1)[C@@H](C)c1ccc(Br)cc1)C(=O)CN(C(=O)CNCCCCN)[C@@H](C)c1ccc(Br)cc1 [TM14] (H-[Nlys][Nspe(4-Br)][Nspe(4-Br)][Nlys][Nspe(4-Br)][Nspe(4-Br)][Nlys]-NH2)
- MIC of peptidomimetics (K. pneumoniae JIE4212; JIE4212): 23.0 µM
- MIC of peptidomimetics (K. pneumoniae JIE4212; [3]): 31.3 µg/mL
- MIC of peptidomimetics (En. cloacae 003): 45.9 µM
- MIC of peptidomimetics (En. cloacae 003; [4]): 62.5 µg/mL
- MIC of peptidomimetics (A. baumannii 005; 005): 11.4 µM
- MIC of peptidomimetics (A. baumannii 005; [5]): 15.6 µg/mL
- MIC of peptidomimetics (A. baumannii 008; 008): 23.0 µM
- MIC of peptidomimetics (A. baumannii 008; [6]): 31.3 µg/mL
- MIC of peptidomimetics (P. aeruginosa 216; 216): 11.5 µM
- MIC of peptidomimetics (P. aeruginosa 216; [7]): 15.6 µg/mL
- MIC of peptidomimetics (E. coli 0010; 0010): 23.0 µM
- MIC of peptidomimetics (E. coli 0010; [8]): 31.3 µg/mL
- MIC of peptidomimetics (En. cloacae 005): 45.9 µM
- MIC of peptidomimetics (En. cloacae 005; [9]): 62.5 µg/mL
- MIC of peptidomimetics (E. coli 0011; 0011): 23.0 µM
- MIC of peptidomimetics (E. coli 0011; [10]): 31.3 µg/mL
- MIC of peptidomimetics (En. cloacae 001): 11.5 µM
- MIC of peptidomimetics (En. cloacae 001; [11]): 15.6 µg/mL
- MIC of peptidomimetics (A. baumannii 006; 006): 11.4 µM
- MIC of peptidomimetics (A. baumannii 006; [12]): 15.6 µg/mL
- MIC of peptidomimetics (E. coli 0015; 0015): 23.0 µM
- MIC of peptidomimetics (E. coli 0015; [13]): 31.3 µg/mL
- MIC of peptidomimetics [1, 14]: 7.8 µg/mL
- MIC of peptidomimetics ([1]; NCTC 13): 5.7 µM
- MIC of peptidomimetics (E. coli 005; 005): 23.0 µM
- MIC of peptidomimetics (E. coli 005; [15]): 31.3 µg/mL
- MIC of peptidomimetics (P. aeruginosa 33; 33): 11.5 µM
- MIC of peptidomimetics (P. aeruginosa 33; [16]): 15.6 µg/mL
- MIC of peptidomimetics (S. aureus 105; 105): 2.9 µM
- MIC of peptidomimetics (S. aureus 105; [17]): 3.9 µg/mL
- MIC of peptidomimetics (A. baumannii 007; 007): 23.0 µM
- MIC of peptidomimetics (A. baumannii 007; [18]): 31.3 µg/mL
- MIC of peptidomimetics (S. aureus 04; 04): 5.7 µM
- MIC of peptidomimetics (S. aureus 04; [19]): 7.8 µg/mL
- HD10 (10% haemolytic dose) [2]: 7.0 µmol/L
- HD50 (50% haemolytic dose) [2]: 17.6 µmol/L
- HD10 (10% haemolytic dose) ([2]; red cells of horse, 4 h): 9.6 µg/mL
- HD50 (50% haemolytic dose) ([2]; red cells of horse, 4 h): 24 µg/mL
- Geometric mean MICCA (C. auris strains): 7.8 µg/mL
- Geometric mean MICMBL (MBL-producing bacteria): 24.1 µg/mL

Compound: KNKRKRRRRRRGGRRRR [Mel4]
- MIC of peptidomimetics (K. pneumoniae JIE4212; [3]): 250 µg/mL
- MIC of peptidomimetics (En. cloacae 003; [4]): 250 µg/mL
- MIC of peptidomimetics (A. baumannii 005; [5]): 250 µg/mL
- MIC of peptidomimetics (A. baumannii 008; [6]): 250 µg/mL
- MIC of peptidomimetics (P. aeruginosa 216; [7]): 250 µg/mL
- MIC of peptidomimetics (E. coli 0010; [8]): 250 µg/mL
- MIC of peptidomimetics (En. cloacae 005; [9]): 250 µg/mL
- MIC of peptidomimetics (E. coli 0011; [10]): 62.5 µg/mL
- MIC of peptidomimetics (En. cloacae 001; [11]): 250 µg/mL
- MIC of peptidomimetics (A. baumannii 006; [12]): 62.5 µg/mL
- MIC of peptidomimetics (E. coli 0015; [13]): 62.5 µg/mL
- MIC of peptidomimetics [1, 14]: 500 µg/mL
- MIC of peptidomimetics (E. coli 005; [15]): 250 µg/mL
- MIC of peptidomimetics (P. aeruginosa 33; [16]): 62.5 µg/mL
- MIC of peptidomimetics (S. aureus 105; [17]): 62.5 µg/mL
- MIC of peptidomimetics (A. baumannii 007; [18]): 250 µg/mL
- MIC of peptidomimetics (S. aureus 04; [19]): 62.5 µg/mL
- HD10 (10% haemolytic dose) [2, 20]: > 256 µg/mL
- HD50 (50% haemolytic dose) [2, 20]: > 256 µg/mL
- HD10 (10% haemolytic dose) [2, 21]: > 109 µmol/L
- HD50 (50% haemolytic dose) [2, 21]: > 109 µmol/L
- Geometric mean MICCA (C. auris strains): 22.1 µg/mL
- Geometric mean MICMBL (MBL-producing bacteria): 162.1 µg/mL

Compound: TLISWIKNKRKQRPRVSRRRRRRGGRRRR [Melimine]
- MIC of peptidomimetics (K. pneumoniae JIE4212; [3]): 250 µg/mL
- MIC of peptidomimetics (K. pneumoniae JIE4212; K. pneumoniae JIE4212, value in brackets): 66.0 µM
- MIC of peptidomimetics (En. cloacae 003; [4]): 125 µg/mL
- MIC of peptidomimetics (En. cloacae 003; En. cloacae 003, value in brackets): 33.0 µM
- MIC of peptidomimetics (A. baumannii 005; [5]): 125 µg/mL
- MIC of peptidomimetics (A. baumannii 005; A. baumannii 005, value in brackets): 33.0 µM
- MIC of peptidomimetics (A. baumannii 008; [6]): 250 µg/mL
- MIC of peptidomimetics (A. baumannii 008; A. baumannii 008, value in brackets): 66.0 µM
- MIC of peptidomimetics (P. aeruginosa 216; [7]): 500 µg/mL
- MIC of peptidomimetics (E. coli 0010; [8]): 250 µg/mL
- MIC of peptidomimetics (E. coli 0010; E. coli 0010, value in brackets): 66.0 µM
- MIC of peptidomimetics (En. cloacae 005; [9]): 250 µg/mL
- MIC of peptidomimetics (En. cloacae 005; En. cloacae 005, value in brackets): 66.0 µM
- MIC of peptidomimetics (E. coli 0011; [10]): 125 µg/mL
- MIC of peptidomimetics (E. coli 0011; E. coli 0011, value in brackets): 33.0 µM
- MIC of peptidomimetics (En. cloacae 001; [11]): 125 µg/mL
- MIC of peptidomimetics (En. cloacae 001; En. cloacae 001, value in brackets): 33.0 µM
- MIC of peptidomimetics (A. baumannii 006; [12]): 62.5 µg/mL
- MIC of peptidomimetics (A. baumannii 006; A. baumannii 006, value in brackets): 16.5 µM
- MIC of peptidomimetics (E. coli 0015; [13]): 125 µg/mL
- MIC of peptidomimetics (E. coli 0015; E. coli 0015, value in brackets): 33.0 µM
- MIC of peptidomimetics [1, 14]: 500 µg/mL
- MIC of peptidomimetics (E. coli 005; [15]): 250 µg/mL
- MIC of peptidomimetics (E. coli 005; E. coli 005, value in brackets): 66.0 µM
- MIC of peptidomimetics (P. aeruginosa 33; [16]): 62.5 µg/mL
- MIC of peptidomimetics (P. aeruginosa 33; P. aeruginosa 33, value in brackets): 16.5 µM
- MIC of peptidomimetics (S. aureus 105; [17]): 31.3 µg/mL
- MIC of peptidomimetics (S. aureus 105; S. aureus 105, value in brackets): 8.2 µM
- MIC of peptidomimetics (A. baumannii 007; [18]): 125 µg/mL
- MIC of peptidomimetics (A. baumannii 007; A. baumannii 007, value in brackets): 33.0 µM
- MIC of peptidomimetics (S. aureus 04; [19]): 31.3 µg/mL
- MIC of peptidomimetics (S. aureus 04; S. aureus 004, value in brackets): 8.2 µM
- HD10 (10% haemolytic dose) [2, 20]: > 256 µg/mL
- HD50 (50% haemolytic dose) [2, 20]: > 256 µg/mL
- HD10 (10% haemolytic dose) [2, 21]: > 67.6 µmol/L
- HD50 (50% haemolytic dose) [2, 21]: > 67.7 µmol/L
- Geometric mean MICCA (C. auris strains): 22.1 µg/mL
- Geometric mean MICMBL (MBL-producing bacteria): 162.1 µg/mL
